In patent US9296774B2, “Halogenated dideoxy sugar derivates, preparation method and application thereof” (Suzhou Harmony Biotechnology Co., Ltd., priority 2009, dated 2016):

What was measured:
mouse [1] = assay: Acute toxicity (LD50), mouse ig
[2] = tested on: MX-1 human breast cancer cells; assay: Mouse transplant tumor, MX-1 human breast cancer;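 further: mice given saline served as the control group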
Procedure: (§1) Saline solution was used as a control. The positive group CTX was treated with the compounds at an amount of 0.4 ml/20 g. The compounds were applied once a day for consecutive 7 days.

mouse [3] = assay: Acute toxicity (LD50), mouse ip injection; conditions: mouse ip after injection
05-732 human bone tumor = assay: Mouse transplant tumor, 05-732 human osteosarcoma
Procedure: as §1

[4] = tested on: anaplastic thyroid carcinoma TA-K cells; assay: Mouse transplant tumor, human anaplastic thyroid carcinoma TA-K;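 further: Tumor-bearing mice compared against a saline-treated control group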
Procedure: as §1

[5] = tested on: AsPc human pancreatic cancer cells; assay: Mouse transplant tumor, AsPc human pancreatic cancer;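 further: Saline-treated mice served as the control group, with a CTX-treated group as positive reference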
Procedure: as §1

B16 malignant melanoma = assay: Mouse transplant tumor, B16 malignant melanoma
Procedure: as §1

[6] = tested on: MGC human stomach cancer cells; assay: Mouse transplant tumor, MGC human stomach cancer;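 further: control group received saline vehicle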
Procedure: Saline solution was used as a control. The positive group CTX was treated with the compounds at an amount of 0.4 ml/20 g. The compounds were applied once a day for consecutive 7 days. The animals were then compensated.

[7] = 125 mg/kg once a day for 7 days
[8] = 125 mg/kg once a day for 7 days, animal weight at end
[9] = 125 mg/kg once a day for 7 days, animal weight at start
[10] = 05-732 human osteosarcoma, 125 mg/kg once a day for 7 days
[11] = human anaplastic thyroid carcinoma TA-K, 125 mg/kg once a day for 7 days
[12] = B16, 125 mg/kg once a day for 7 days

SMILES: CC(=O)OCC1OC(OP(=O)(O)N(CCCl)CCCl)C(Br)CC1OC(C)=O (centres unmarked) [Compound 12]
- LD50 (mouse [1]): 2101.4 mg/kg
- inhibitive effect on mouse transplant tumor (in words) ([2]; 125 mg/kg): significant effect
- Inhibition of tumor growth [2, 7]: 82.1
- Weight of tumor [2, 7]: 0.4
- weight end [2, 8]: 18.4
- weight start [2, 9]: 18.2
- LD50 (mouse [3]): 306.4 mg/kg
- inhibitive effect on mouse transplant tumor (in words) (05-732 human bone tumor; 05-732 human bone tumor, 125 mg/kg): significant effect
- Inhibtion of tumor growth (05-732 human bone tumor; [10]): 75.1
- Weight of tumor (05-732 human bone tumor; [10]): 0.5
- weight end (05-732 human bone tumor; 05-732 human osteosarcoma, 125 mg/kg once a day for 7 days, animal weight at end): 18.4
- weight start (05-732 human bone tumor; 05-732 human osteosarcoma, 125 mg/kg once a day for 7 days, animal weight at start): 18.2
- inhibitive effect on mouse transplant tumor (in words) ([4]; anaplastic thyroid carcinoma TA-K, 125 mg/kg): significant effect
- Inhibition of tumor growth [4, 11]: 75.8
- Weight of tumor [4, 11]: 0.6
- weight end ([4]; human anaplastic thyroid carcinoma TA-K, 125 mg/kg once a day for 7 days, animal weight at end): 18.4
- weight start ([4]; human anaplastic thyroid carcinoma TA-K, 125 mg/kg once a day for 7 days, animal weight at start): 18.2
- inhibitive effect on mouse transplant tumor (in words) ([5]; 125 mg/kg): significant effect
- Inhibition of tumor growth [5, 7]: 77.5
- Weight of tumor [5, 7]: 0.5
- weight end [5, 8]: 18.4
- weight start [5, 9]: 18.2
- Inhibition of tumor growth (%) (B16 malignant melanoma; [12]): 79.5%
- Weight of tumor (B16 malignant melanoma; [12]): 0.5
- weight end (B16 malignant melanoma; B16, 125 mg/kg once a day for 7 days, body weight at end): 18.4
- weight start (B16 malignant melanoma; B16, 125 mg/kg once a day for 7 days, body weight at start): 18.2
- inhibitive effect on mouse transplant tumor (in words) (B16 malignant melanoma; B16 malignant melanoma, 125 mg/kg): significant effect
- inhibitive effect on mouse transplant tumor (in words) ([6]; 125 mg/kg): significant effect
- Inhibition of tumor growth [6, 7]: 80.5
- Weight of tumor [6, 7]: 0.5
- weight end [6, 8]: 18.4
- weight start [6, 9]: 18.2
